Structures are written as SMILES. Where a chain is given by its changes, count along the chain named.

The target in one assay is T1, human SIRT3 (Homo sapiens, UniProt Q9NTG7).
T1 construct: made in house; host or cells: E. coli
T1 sequence (Q9NTG7 1-399): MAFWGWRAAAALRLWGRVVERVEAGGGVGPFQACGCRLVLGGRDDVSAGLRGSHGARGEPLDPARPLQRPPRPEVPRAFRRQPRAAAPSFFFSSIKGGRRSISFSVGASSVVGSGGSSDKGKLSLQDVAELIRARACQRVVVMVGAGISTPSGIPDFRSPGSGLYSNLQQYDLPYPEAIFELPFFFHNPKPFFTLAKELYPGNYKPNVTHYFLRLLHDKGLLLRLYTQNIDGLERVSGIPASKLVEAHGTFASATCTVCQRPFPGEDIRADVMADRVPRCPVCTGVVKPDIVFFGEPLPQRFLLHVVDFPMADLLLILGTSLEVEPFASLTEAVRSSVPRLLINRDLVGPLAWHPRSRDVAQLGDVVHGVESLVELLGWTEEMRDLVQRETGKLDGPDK
The assay can be described thus: Resveratrol dose-response, fluorogenic deacetylation, SIRT3. Conditions: 37° C., 25 μM NAD+, 25 μM p53-320; FIG. 1. The class given is biochemical.

A further assay addresses T2, ySir2 (Saccharomyces cerevisiae, UniProt P06700).
T2 construct: made in house; host or cells: E. coli
Put plainly: Resveratrol dose-response, fluorogenic deacetylation, ySir2. In kind it is biochemical, S. cerevisiae (budding yeast). The settings on record: 30° C., 200 μM NAD+, 200 μM p53-382; FIG. 1.

The next assay deals with T3, human SIRT1 (Homo sapiens, UniProt Q96EB6).
T3 construct: made in house; host or cells: E. coli
T3 sequence (Q96EB6 1-747): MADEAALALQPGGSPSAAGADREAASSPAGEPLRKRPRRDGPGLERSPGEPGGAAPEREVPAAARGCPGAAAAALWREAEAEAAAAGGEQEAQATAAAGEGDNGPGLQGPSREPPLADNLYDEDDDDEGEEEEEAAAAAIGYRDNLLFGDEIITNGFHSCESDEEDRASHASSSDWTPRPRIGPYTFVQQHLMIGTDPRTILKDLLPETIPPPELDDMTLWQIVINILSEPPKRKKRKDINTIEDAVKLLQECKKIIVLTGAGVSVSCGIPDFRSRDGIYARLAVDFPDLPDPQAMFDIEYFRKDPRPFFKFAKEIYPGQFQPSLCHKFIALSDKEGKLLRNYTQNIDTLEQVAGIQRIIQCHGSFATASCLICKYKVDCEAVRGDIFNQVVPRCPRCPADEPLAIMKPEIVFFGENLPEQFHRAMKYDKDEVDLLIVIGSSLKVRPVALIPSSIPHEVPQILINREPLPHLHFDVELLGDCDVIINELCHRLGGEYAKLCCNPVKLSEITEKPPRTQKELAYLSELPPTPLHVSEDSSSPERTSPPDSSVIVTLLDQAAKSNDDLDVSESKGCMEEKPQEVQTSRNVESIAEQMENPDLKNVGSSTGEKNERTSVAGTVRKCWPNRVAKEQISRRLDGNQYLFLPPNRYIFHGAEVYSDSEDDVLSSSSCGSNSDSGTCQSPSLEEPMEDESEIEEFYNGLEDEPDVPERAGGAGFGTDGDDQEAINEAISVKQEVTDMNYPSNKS
Put plainly: SIRT1 rate measurement, fluorogenic p53-382 peptide deacetylation. The class given is biochemical.

In the next assay the target is T4, SIRT5Δ1-39 (Homo sapiens, UniProt Q9NXA8).
T4 construct: in which the first 39 residues were deleted (SIRT5Δ1-39); made in house
T4 sequence (Q9NXA8 40-310): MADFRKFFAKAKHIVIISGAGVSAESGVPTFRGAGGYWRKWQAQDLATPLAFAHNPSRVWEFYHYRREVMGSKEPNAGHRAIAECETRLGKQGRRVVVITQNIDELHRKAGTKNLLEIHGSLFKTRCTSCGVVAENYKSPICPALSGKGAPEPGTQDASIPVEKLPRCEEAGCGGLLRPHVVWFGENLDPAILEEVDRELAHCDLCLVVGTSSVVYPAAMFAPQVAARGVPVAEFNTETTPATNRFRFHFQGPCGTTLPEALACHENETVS
Put plainly: Deacetylation activity of N-terminally truncated SIRT5. In kind it is biochemical. Conditions: 500 μM resveratrol; 1 mM p53-382 peptide, 12 mM NAD+; compared with full-length SIRT5.

In a further assay the target is T5, human SIRT5 (Homo sapiens, UniProt Q9NXA8).
T5 sequence (Q9NXA8 37-310): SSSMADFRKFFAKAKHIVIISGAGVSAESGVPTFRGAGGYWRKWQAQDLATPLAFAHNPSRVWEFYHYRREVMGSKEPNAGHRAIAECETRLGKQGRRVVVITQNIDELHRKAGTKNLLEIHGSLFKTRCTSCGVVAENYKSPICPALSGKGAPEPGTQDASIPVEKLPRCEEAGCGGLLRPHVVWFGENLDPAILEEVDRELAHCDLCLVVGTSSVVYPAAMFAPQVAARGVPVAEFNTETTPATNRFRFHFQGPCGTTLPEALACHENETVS
Conditions: 500 μM resveratrol; saturating NAD+ (12 mM).

The next assay concerns the target T6, E230K mutant SIRT1 (Homo sapiens, UniProt Q96EB6, E230K).
T6 construct: made in house; host or cells: E. coli
T6 sequence (Q96EB6 1-747 E230K): T3 sequence (Q96EB6 1-747) with E230K
The assay can be described thus: Resveratrol dose-response, fluorogenic deacetylation, E230K mutant SIRT1. The settings on record: 37° C., 25 μM NAD+, 25 μM p53-382; FIG. 1A. In kind it is biochemical.

The next assay has as its target T7, dSir2 (Drosophila melanogaster, UniProt Q9VK34, DEL53-54/DUP289-290/L518H/P746H/V753F).
T7 construct: made in house; host or cells: E. coli
Put plainly: Resveratrol dose-response, fluorogenic deacetylation, dSir2. The class given is biochemical, D. melanogaster. Conditions: 25° C., 50 μM NAD+, 50 μM Fluor de Lys acetylated lysine substrate; FIG. 1.

T2 sequence (P06700 whole entry): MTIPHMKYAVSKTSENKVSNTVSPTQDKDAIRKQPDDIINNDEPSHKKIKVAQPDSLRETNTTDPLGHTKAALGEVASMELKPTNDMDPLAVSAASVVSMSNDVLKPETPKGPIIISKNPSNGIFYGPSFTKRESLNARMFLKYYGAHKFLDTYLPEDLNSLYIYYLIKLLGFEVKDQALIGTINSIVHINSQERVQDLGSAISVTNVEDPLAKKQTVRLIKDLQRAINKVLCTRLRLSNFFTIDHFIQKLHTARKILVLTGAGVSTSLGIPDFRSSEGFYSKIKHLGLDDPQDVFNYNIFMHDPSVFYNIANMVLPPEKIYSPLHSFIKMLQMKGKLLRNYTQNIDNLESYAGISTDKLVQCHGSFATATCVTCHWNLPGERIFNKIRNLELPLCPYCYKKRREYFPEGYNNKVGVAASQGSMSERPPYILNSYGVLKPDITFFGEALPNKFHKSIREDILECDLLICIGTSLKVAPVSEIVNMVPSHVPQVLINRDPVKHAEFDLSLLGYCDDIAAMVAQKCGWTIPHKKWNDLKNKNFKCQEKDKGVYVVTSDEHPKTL
T7 sequence (Q9VK34 other isoform, or with tags, fused parts or gaps DEL53-54/DUP289-290/L518H/P746H/V753F): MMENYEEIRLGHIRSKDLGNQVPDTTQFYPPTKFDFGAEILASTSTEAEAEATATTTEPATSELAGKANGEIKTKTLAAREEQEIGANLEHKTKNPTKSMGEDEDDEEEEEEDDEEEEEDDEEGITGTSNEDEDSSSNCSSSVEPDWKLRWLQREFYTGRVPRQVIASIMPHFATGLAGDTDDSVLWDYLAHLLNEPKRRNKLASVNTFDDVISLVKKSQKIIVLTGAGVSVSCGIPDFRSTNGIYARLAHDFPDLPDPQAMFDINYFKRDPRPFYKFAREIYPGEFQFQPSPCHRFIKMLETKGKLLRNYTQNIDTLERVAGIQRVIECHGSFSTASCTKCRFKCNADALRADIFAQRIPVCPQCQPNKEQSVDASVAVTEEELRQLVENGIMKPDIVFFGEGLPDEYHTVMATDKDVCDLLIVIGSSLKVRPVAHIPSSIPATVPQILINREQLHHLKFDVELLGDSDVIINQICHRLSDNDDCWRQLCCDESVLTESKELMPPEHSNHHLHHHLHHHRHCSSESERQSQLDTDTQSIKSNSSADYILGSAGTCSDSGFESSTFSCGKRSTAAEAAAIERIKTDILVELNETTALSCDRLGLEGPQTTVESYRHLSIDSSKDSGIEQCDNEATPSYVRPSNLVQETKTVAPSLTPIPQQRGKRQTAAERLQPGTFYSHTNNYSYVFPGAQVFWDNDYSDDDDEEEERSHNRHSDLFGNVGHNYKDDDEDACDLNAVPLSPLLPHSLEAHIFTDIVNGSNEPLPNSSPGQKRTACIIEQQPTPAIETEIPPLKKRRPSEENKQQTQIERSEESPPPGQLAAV

Regarding `Oc1ccc(/C=C/c2cc(O)cc(O)c2)cc1` [Resveratrol, 3,5,4′-Trihydroxy-trans-stilbene], the “resveratrol-dependent rate increase, human SIRT3” value on human SIRT3 was “not”. The “resveratrol-dependent rate increase, ySir2” value at ySir2 is “rate increases are seen”. Also, the “resveratrol-dependent rate increase, human SIRT1” value at human SIRT1 (37° C., 25 μM NAD+, 25 μM p53-382, FIG. 1) was “rate increases are seen”. The “resveratrol concentration at which maximum rate stimulation occurred, SIRT1” value at human SIRT1 (FIG. 1A) is > 100 µM. Moreover, the “stimulation of SIRT5Δ1-39 deacetylation activity” value at SIRT5Δ1-39 is reported as “similarly stimulated”. Besides, the “lowering of the Km for the p53-382 peptide” value on human SIRT5 is reported as “more than ten-fold”. In addition, at E230K mutant SIRT1, the “resveratrol activation of E230K mutant SIRT1” value is given as “diminished resveratrol activation”. Besides, the “resveratrol-dependent rate increase, dSir2” value on dSir2 is reported as “rate increases are seen”.

(Values after patent US20120172340A1, “Compositions and Methods for Selectively Activating Human Sirtuins” (BIOMOL International L.P., priority 2004, published 2012).)
